Results on 13 molecules are retold here after patent US12103943B2, “Development of novel clofarabine analogs for cancer therapy” (Southern Research Institute, priority 2021, dated 2024).

Entries after “also recorded” stand apart in the source; their conditions may differ. Like-named read-outs stand apart in the source and are kept apart here. A value given as a limit tells only on which side of the number the result lay.

The nature of data set [1]: Basic dose escalation test for tolerance of drug concentration. The class given is in vivo. Conditions: dose escalation 25, 40, 55 mg/kg, Q1D×5 with 2-day washout, B6C3F1/N female mice, FIG. 2. The protocol:
Briefly, a cohort of B6C3F1/N female mice were split into three dosing arms: Control (N=2), Clofarabine (N=3), and compound 5 (N=3). The dosing schedule was set based on previous and historical dosing with nucleosides, Q1D×5 with a 2-day washout period before dose escalation. The selected dose concentrations were 25 mg/kg, 40 mg/kg, and 55 mg/kg. Blood was collected weekly by submandibular bleed for ALT and AST measurements, and at necropsy major organs were examined for gross toxicity.

Another data set relates to BT549. The data set can be described thus: Cell viability after 72-hour incubation, CellTiter-Glo 2.0. In kind it is cell-based. The settings on record: Homo sapiens, read-out: IC50 (μM) BT549. The protocol: (§1) Select tumor lines representative of triple negative breast cancer (MDA-MB-231 and BT549) were identified for testing of efficacy of compounds. Assessment of compound efficacy was determined by a test of cell viability after 72-hour incubation with compound using CellTiter-Glo 2.0 (Promega). […] Selectivity index is defined as the ratio of the calculated IC50 in normal epithelial lines to the calculated IC50 in a cancerous cell line. For CellTiter-Glo cells are plated in a 96-well, opaque, flat-bottomed black plate. Cells are seeded at 5,000 cells per well and allowed to incubate for 6 hours to allow for attachment. Cells are then dosed in a 12-point serial dilution spanning a range of 50 μM to 25 nM. Clofarabine is used as a positive control for all cell lines, and each plate contains media only, and DMSO controls as negatives for each compound tested. Final volume for both cells and compound should be 100 uL. After 72-hour exposure to compound, plates are removed from the incubator and allowed to equilibrate to room temperature for 30 minutes. An equal volume of CellTiter-Glo 2.0 reagent is added to media present in well (100 uL). Plates are then placed onto an orbital shaker and allow to incubate while shaking for 10 to 15 minutes. Raw luminescence readings are obtained. Log transformations of the background subtracted data are analyzed using a 4PL-fit model, and IC50 values are calculated based on the sigmoidal fit of the non-linear regression model.
In general terms: ATP-based viability assays read luminescence as a measure of living cells.

For the next data set, the system named is MDA-MB-231. The data set is described as above. The class given is cell-based. The settings on record: Homo sapiens, read-out: IC50 (μM) MDA-MB-231. The method, then:
as §1

The test system of a further data set is MDA-MB-231 cells. The data set is described as follows: In vivo efficacy in a solid tumor, triple negative breast cancer model. Conditions: 25 mg/kg intraperitoneal for 2 weeks, s.c. MDA-MB-231 tumors in athymic nude mice, FIG. 1. The method, then: Athymic nude mice (Crl:Nu(NCr)-Fox^1nu; Charles River) were injected s.c. in the right flank with 100 uL MDA-MB-231 cells in 1:1 RPMI 1640 and Cultrex BME Type 3 (1×10^6 cells/mouse). Tumors were allowed to grow until 500 mm^3 (Tumor Volume= […]×Length×Width^2), at which point mice were dosed […] for 2 weeks by intraperitoneal injection with either vehicle (N-Methyl-2-Pyrrolidone (NMP), Polyethylene glycol 400 (PEG400), and saline at a ratio of 1:2:2 v/v/v), 25 mg/kg of Clofarabine, or 25 mg/kg of compound 5. Tumor volumes were measured twice weekly, and bodyweight was measured daily during the dosing period. This was a pilot test to determine anti-tumor growth activity, so regrowth was not measured and the study was terminated two days after the final dose.

Setting [2] is: MDA-MB-231 triple negative breast cancer cells, 72-hour exposure, CellTiter-Glo 2.0, 50 μM to 25 nM.
Where [3] appears, read: BT-549, BT549 triple negative breast cancer cells, 72-hour exposure, CellTiter-Glo 2.0, 50 μM to 25 nM.

For the molecule `Nc1nc(Cl)nc2c1ncn2[C@@H]1O[C@H](CO)[C@@H](O)[C@@H]1F` [Clofarabine, 2-chloro-2′-fluoro-2′-deoxy-9-β-D-arabinofuranosyladenine], the “tolerance of drug concentration (toxicity, survival)” value in data set [1] is “Toxicity was seen immediately following the 55 mg/kg dose”.

Turning to `COC(=O)[C@H](C)NP(=O)(OC[C@H]1O[C@@H](n2cnc3c(N)nc(C(F)(F)F)nc32)C(F)C1O)Oc1ccccc1` (mixture of isomers) [Compound 12, methyl (2S)-2-[[phenoxy-[[rac-(2R,3R,4S,5R)-5-[6-amino-2-(trifluoromethyl)purin-9-yl]-4-fluoro-3-hydroxy-tetrahydrofuran-2-yl]methoxy]phosphoryl]amino]propanoate], the IC50 in the data set with BT549 (BT-549, 72 h) amounted to 13.1 µM; in the data set with MDA-MB-231 (MDA-MB-231, 72 h) it was 13.7 µM.

`OC[C@H]1O[C@@H](n2cnc3c(NC4CC4)nc(C(F)(F)F)nc32)[C@@H](F)[C@@H]1O` [Compound 7c, (2R,3R,4S,5R)-5-[6-(cyclopropylamino)-2-(trifluoromethyl)purin-9-yl]-4-fluoro-2-(hydroxymethyl)tetrahydrofuran-3-ol]: the half-inhibitory concentration (IC50) with MDA-MB-231 (setting [2]) came out at 2.58 µM.

Regarding `Nc1nc(C(F)(F)F)nc2c1ncn2[C@@H]1O[C@H](CO)[C@@H](O)[C@@H]1F` [Compound 5, (2R,3R,4S,5R)-5-[6-amino-2-(trifluoromethyl)purin-9-yl]-4-fluoro-2-(hydroxymethyl)tetrahydrofuran-3-ol], the values for the IC50 in the data set on BT549 (setting [3]) and in the data set with MDA-MB-231 (setting [2]) were 0.018 µM and 4.16 µM, respectively. Moreover, the “tumor volume / anti-tumor growth activity” value with MDA-MB-231 cells was “effectively reduces tumor volume; also recorded: anti-growth efficacy”.

For `CCC(CC)Nc1nc(C(F)(F)F)nc2c1ncn2[C@@H]1O[C@H](CO)[C@@H](O)[C@@H]1F` [Compound 7b, (2R,3R,4S,5R)-5-[6-(1-ethylpropylamino)-2-(trifluoromethyl)purin-9-yl]-4-fluoro-2-(hydroxymethyl)tetrahydrofuran-3-ol], the figures for the IC50 in the data set on BT549 (setting [3]) and in the data set on MDA-MB-231 (setting [2]) were > 50 µM and ≥ 67 µM, respectively.

Take `CC(C)Nc1nc(C(F)(F)F)nc2c1ncn2[C@@H]1O[C@H](CO)[C@@H](O)[C@@H]1F` [Compound 7a, (2R,3R,4S,5R)-4-fluoro-2-(hydroxymethyl)-5-(6-(isopropylamino)-2-(trifluoromethyl)purin-9-yl)tetrahydrofuran-3-ol]: the concentration for half-maximal inhibition (IC50) in the data set on MDA-MB-231 (setting [2]) amounted to 20.5 µM.

For the molecule `CC[C@@H](C)[C@@H](N)C(=O)OC[C@H]1O[C@@H](n2cnc3c(N)nc(C(F)(F)F)nc32)[C@@H](F)[C@@H]1O` [Compound 18, [(2R,3R,4S,5R)-5-[6-amino-2-(trifluoromethyl)purin-9-yl]-4-fluoro-3-hydroxy-tetrahydrofuran-2-yl]methyl (2R,3R)-2-amino-3-methyl-pentanoate], the half-maximal inhibitory concentration (IC50) with BT549 (setting [3]) is > 50 µM; in the data set with MDA-MB-231 (setting [2]), 11.4 µM.

`CC(C)C(=O)OC[C@H]1O[C@@H](n2cnc3c(N)nc(C(F)(F)F)nc32)[C@@H](F)[C@@H]1O` [Compound 15, [(2R,3R,4S,5R)-5-[6-amino-2-(trifluoromethyl)purin-9-yl]-4-fluoro-3-hydroxy-tetrahydrofuran-2-yl]methyl 2-methylpropanoate]: the values for the IC50 in the data set with BT549 (setting [3]) and in the data set on MDA-MB-231 (setting [2]) were > 50 µM and 7.12 µM, respectively.

In the case of `CCCCCCCCCCCC(=O)Nc1nc(C(F)(F)F)nc2c1ncn2[C@@H]1O[C@H](CO)[C@@H](O)[C@@H]1F` [Compound 10, N-[9-[(2R,3S,4R,5R)-3-fluoro-4-hydroxy-5-(hydroxymethyl)tetrahydrofuran-2-yl]-2-(trifluoromethyl)purin-6-yl]dodecanamide], the half-maximal inhibitory concentration (IC50) in the data set with MDA-MB-231 (setting [2]) came to 3.19 µM.

Regarding `CC1(Nc2nc(C(F)(F)F)nc3c2ncn3[C@@H]2O[C@H](CO)[C@@H](O)[C@@H]2F)CCC1` [Compound 7f, (2R,3R,4S,5R)-4-fluoro-2-(hydroxymethyl)-5-[6-[(1-methylcyclobutyl)amino]-2-(trifluoromethyl)purin-9-yl]tetrahydrofuran-3-ol], the 50% inhibitory concentration (IC50) in the data set with BT549 (setting [3]) was 13.5 µM; with MDA-MB-231 (setting [2]), > 50 µM.

For the molecule `OC[C@H]1O[C@@H](n2cnc3c(NC4CCCC4)nc(C(F)(F)F)nc32)[C@@H](F)[C@@H]1O` [Compound 7g, (2R,3R,4S,5R)-5-[6-(cyclopentylamino)-2-(trifluoromethyl)purin-9-yl]-4-fluoro-2-(hydroxymethyl)tetrahydrofuran-3-ol], the IC50 in the data set on BT549 (setting [3]) came to 5.89 µM.

Consider `OC[C@H]1O[C@@H](n2cnc3c(NC4CCC4)nc(C(F)(F)F)nc32)[C@@H](F)[C@@H]1O` [Compound 7e, (2R,3R,4S,5R)-5-[6-(cyclobutylamino)-2-(trifluoromethyl)purin-9-yl]-4-fluoro-2-(hydroxymethyl)tetrahydrofuran-3-ol], for which the IC50 in the data set with BT549 (setting [3]) was 13.8 µM.

On to `CC(Nc1nc(C(F)(F)F)nc2c1ncn2[C@@H]1O[C@H](CO)[C@@H](O)[C@@H]1F)C1CC1` (stereo partly drawn) [Compound 7d, (2R,3R,4S,5R)-5-[6-(1-cyclopropylethylamino)-2-(trifluoromethyl)purin-9-yl]-4-fluoro-2-(hydroxymethyl)tetrahydrofuran-3-ol], for which the concentration for half-maximal inhibition (IC50) in the data set on BT549 (setting [3]) came to 15.1 µM; in the data set on MDA-MB-231 (setting [2]), 20.5 µM.

The term IC50 denotes the concentration needed to halve the response being measured.
